Measured values as given in ChEMBL document CHEMBL4602644, “Synthesis of PJOV56, a new quinoxalinyl-hydrazone derivative able to induce autophagy and apoptosis in colorectal cancer cells, and related compounds” (Bioorg Med Chem Lett, 2020).
pIC50: −log10 of the molar value. Active and inactive are the calls of the source. No cut-off for these calls is given here.

Columns and labels:
HCT-116 [1] = assay: Induction of apoptosis in human HCT116 cells assessed as increase in caspase 7 expression at 3 to 6 uM measured after 48 hrs by Western blot analysis; type: functional, cell-based
HCT-116 [2] = assay: Cytotoxicity against human HCT116 cells assessed as reduction in cell viability measured after 48 hrs by MTT assay; type: functional, cell-based; conditions: HCT-116, 48 h
HCT-116 [3] = assay: Cell cycle arrest in human HCT116 cells assessed as accumulation at S phase at 6 uM measured after 48 hrs by propidium iodide staining based flow cytometry (reference value: 33.29 %); type: functional
HCT-116 [4] = assay: Induction of apoptosis in human HCT116 cells assessed as early apoptotic cells at 3 uM measured after 48 hrs by annexinV-PE/7-AAD staining based flow cytometric analysis (reference value: 6.53 %); type: functional
HCT-116 [5] = assay: Cell cycle arrest in human HCT116 cells assessed as accumulation at S phase at 1.5 uM measured after 48 hrs by propidium iodide staining based flow cytometry (reference value: 33.29 %); type: functional
HCT-116 [6] = assay: Cell cycle arrest in human HCT116 cells assessed as accumulation at S phase at 3 uM measured after 48 hrs by propidium iodide staining based flow cytometry (reference value: 33.29 %); type: functional
HCT-116 [7] = assay: Induction of apoptosis in human HCT116 cells assessed as late apoptotic cells at 3 uM measured after 48 hrs by annexinV-PE/7-AAD staining based flow cytometric analysis (reference value: 0.18 %); type: functional
HCT-116 [8] = assay: Induction of apoptosis in human HCT116 cells assessed as early apoptotic cells at 6 uM measured after 48 hrs by annexinV-PE/7-AAD staining based flow cytometric analysis (reference value: 6.53 %); type: functional
HCT-116 [9] = assay: Induction of apoptosis in human HCT116 cells assessed as late apoptotic cells at 1.5 uM measured after 48 hrs by annexinV-PE/7-AAD staining based flow cytometric analysis (reference value: 0.18 %); type: functional
HCT-116 [10] = assay: Induction of autophagy in human HCT116 cells decrease in Beclin 1 level at 6 uM measured after 48 hrs by Western blot analysis; type: functional, cell-based
HCT-116 [11] = assay: Disruption of membrane integrity in human HCT116 cells assessed as decrease in viable cells at 6 uM measured after 48 hrs by propidium iodide staining based flow cytometry relative to control; type: functional
HCT-116 [12] = assay: Disruption of membrane integrity in human HCT116 cells assessed as increase in non-viable cells at 3 uM measured after 48 hrs by propidium iodide staining based flow cytometry relative to control; type: functional
HCT-116 [13] = assay: Induction of morphological changes in human HCT116 cells assessed as decrease in number of mitotic cells at 1.5 to 6 uM measured after 48 hrs by propidium iodide staining based flow cytometry; type: functional, cell-based
HCT-116 [14] = assay: Induction of autophagy in human HCT116 cells assessed as formation of autophagic vacuoles at 3 to 6 uM measured after 48 hrs by monodansylcadaverine staining based confocal microscopy; type: functional, cell-based
HCT-116 [15] = assay: Disruption of membrane integrity in human HCT116 cells assessed as increase in non-viable cells at 6 uM measured after 48 hrs by propidium iodide staining based flow cytometry relative to control; type: functional
HCT-116 [16] = assay: Cytotoxicity against human HCT116 cells assessed as reduction in cell viability measured after 24 hrs by MTT assay; type: functional, cell-based; conditions: HCT-116, 24 h
OVCAR-8 = assay: Cytotoxicity against human OVCAR8 cells assessed as cell growth inhibition at 5 ug/ml measured after 72 hrs by MTT assay relative to control; type: functional; conditions: OVCAR-8, 72 h, read-out: GI
HCT-116 [17] = assay: Cell cycle arrest in human HCT116 cells assessed as accumulation at G0/G1 phase at 6 uM measured after 48 hrs by propidium iodide staining based flow cytometry (reference value: 41.67 %); type: functional
HCT-116 [18] = assay: Induction of apoptosis in human HCT116 cells assessed as necrotic cells at 3 uM measured after 48 hrs by annexinV-PE/7-AAD staining based flow cytometric analysis (reference value: 0.16 %); type: functional
HCT-116 [19] = assay: Induction of morphological changes in human HCT116 cells assessed as increase in cell size at 1.5 to 6 uM measured after 48 hrs by propidium iodide staining based flow cytometry; type: functional
HCT-116 [20] = assay: Disruption of membrane integrity in human HCT116 cells assessed as decrease in viable cells at 3 uM measured after 48 hrs by propidium iodide staining based flow cytometry relative to control; type: functional
HCT-116 [21] = assay: Cell cycle arrest in human HCT116 cells assessed as accumulation at G2/M phase at 6 uM measured after 48 hrs by propidium iodide staining based flow cytometry (reference value: 24.98 %); type: functional
HCT-116 [22] = assay: Induction of apoptosis in human HCT116 cells assessed as live cells at 3 uM measured after 48 hrs by annexinV-PE/7-AAD staining based flow cytometric analysis (reference value: 91.42 %); type: functional
HCT-116 [23] = assay: Disruption of membrane integrity in human HCT116 cells at 1.5 to 3 uM measured after 48 hrs by propidium iodide staining based flow cytometry; type: functional, cell-based
SF-295 = assay: Cytotoxicity against human SF295 cells assessed as reduction in cell viability measured after 72 hrs by MTT assay; type: functional, cell-based; conditions: SF-295, 72 h
HCT-116 [24] = assay: Induction of autophagy in human HCT116 cells increase in LC3A/B-II level at 3 to 6 uM measured after 48 hrs by Western blot analysis; type: functional, cell-based
HCT-116 [25] = assay: Induction of autophagy in human HCT116 cells assessed as formation of acidic vesicular organelles at 3 to 6 uM measured after 48 hrs by acridine orange staining based confocal microscopy; type: functional, cell-based
HCT-116 [26] = assay: Cytotoxicity against human HCT116 cells assessed as cell growth inhibition at 5 ug/ml measured after 72 hrs by MTT assay relative to control; type: functional; conditions: HCT-116, 72 h, read-out: GI
K562 = assay: Cytotoxicity against human K562 cells assessed as reduction in cell viability measured after 72 hrs by MTT assay; type: functional, cell-based; conditions: K562, 72 h
HCT-116 [27] = assay: Induction of morphological changes in human HCT116 cells assessed as discrete apoptotic cells at 6 uM measured after 48 hrs by propidium iodide staining based flow cytometry; type: functional, cell-based
HCT-116 [28] = assay: Induction of DNA fragmentation in human HCT116 cells at 6 uM measured after 48 hrs by propidium iodide staining based flow cytometry relative to control; type: functional
HCT-116 [29] = assay: Induction of apoptosis in human HCT116 cells assessed as late apoptotic cells at 6 uM measured after 48 hrs by annexin-V staining based flow cytometry (reference value: 0.34 %); type: functional
HCT-116 [30] = assay: Cell cycle arrest in human HCT116 cells assessed as accumulation at G2/M phase at 1.5 uM measured after 48 hrs by propidium iodide staining based flow cytometry (reference value: 24.98 %); type: functional
HCT-116 [31] = assay: Induction of autophagy in human HCT116 cells increase in Beclin 1 level at 3 uM measured after 48 hrs by Western blot analysis; type: functional, cell-based
HepG2 = assay: Cytotoxicity against human HepG2 cells assessed as reduction in cell viability measured after 72 hrs by MTT assay; type: functional, cell-based; conditions: HepG2, 72 h
HCT-116 [32] = assay: Cell cycle arrest in human HCT116 cells assessed as accumulation at G2/M phase at 3 uM measured after 48 hrs by propidium iodide staining based flow cytometry (reference value: 24.98 %); type: functional

C(=N\Nc1cnc2ccccc2n1)/c1ccccn1 was tested, and the Activity (HCT-116 [1]) was “Active”, the pIC50 (HCT-116 [2]) was 5.52 and the Activity (HCT-116 [3]) was 29.41%. For the same molecule, the Activity (HCT-116 [4]) was 5.18%, the Activity (HCT-116 [5]) was 34.31% and the Activity (HCT-116 [6]) was 55.35%. For the same molecule, the Activity (HCT-116 [7]) was 2.55%, the Activity (HCT-116 [8]) was 8.28% and the Activity (HCT-116 [9]) was 1.14%. The Activity (HCT-116 [10]) was “Active”, the Activity (HCT-116 [11]) was 68.31% and the Activity (HCT-116 [12]) was 9.46%. For the same molecule, the Activity (HCT-116 [13]) was “Active”, the Activity (HCT-116 [14]) was “Active” and the Activity (HCT-116 [15]) was 31.36%. The pIC50 (HCT-116 [16]) was under 4.70, the inhibition of growth at 5 µg/mL (OVCAR-8) was 97.8% and the Activity (HCT-116 [17]) was 64.85%. The Activity (HCT-116 [18]) was 0.87%, the Activity (HCT-116 [19]) was “Active” and the Activity (HCT-116 [20]) was 90.45%. The Activity (HCT-116 [21]) was 5.8%, the Activity (HCT-116 [22]) was 90.36% and the Activity (HCT-116 [23]) was “inactive”. The pIC50 (SF-295) was 5.41, the Activity (HCT-116 [24]) was “Active” and the Activity (HCT-116 [25]) was “Active”. The inhibition of growth at 5 µg/mL (HCT-116 [26]) was 80.4%, the pIC50 (K562) was 5.58 and the Activity (HCT-116 [27]) was “Active”. The Activity (HCT-116 [28]) was 3.89%, the Activity (HCT-116 [29]) was 25.6% and the Activity (HCT-116 [30]) was 29.99%. The Activity (HCT-116 [31]) was “Active”, the pIC50 (HepG2) was 5.13 and the Activity (HCT-116 [32]) was 30.19%.
